Structures are written as SMILES.

Common to all, as to assay type: in vivo
Assay [1] relates to Setaria faberi (SETFA). The assay can be described thus: Pre-emergence biological efficacy, glasshouse, 1000 g/ha, evaluated after 13 days (100=total damage to plant; 0=no damage to plant). Conditions: Setaria faberi, 312 h, read-out: Percentage damage caused to weed species, pre-emergence, SETFA; for pest or weed control at 1000 g/ha: rate 1,000 g/ha. The method in brief: (§1)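 Seeds were sown in standard soil in pots, then grown in a controlled glasshouse at 24/16° C. day/night, 14 hours light and 65% humidity, with watering twice daily.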

Assay [2] deals with Ipomoea hederaceae (IPOHE). The assay is described as above. Conditions: Ipomoea, 312 h, read-out: Percentage damage caused to weed species, pre-emergence, IPOHE; for pest or weed control at 1000 g/ha: rate 1,000 g/ha. The method, boiled down: as §1
Assay [3] has as its system Echinochloa crus-galli (ECHCG). The description is as above. Conditions: Echinochloa crus-galli, 312 h, read-out: Percentage damage caused to weed species, pre-emergence, ECHCG; for pest or weed control at 1000 g/ha: rate 1,000 g/ha. The method, boiled down:
as §1

The test system of assay [4] is Solanum nigrum (SOLNI). The assay is described as above. Conditions: Solanum nigrum, 312 h, read-out: Percentage damage caused to weed species, pre-emergence, SOLNI; for pest or weed control at 1000 g/ha: rate 1,000 g/ha. The method, boiled down:
as §1

The test system of assay [5] is Alopecurus myosuroides (ALOMY). The description is as above. As to conditions: Alopecurus myosuroides, 312 h, read-out: Percentage damage caused to weed species, pre-emergence, ALOMY; for pest or weed control at 1000 g/ha: rate 1,000 g/ha. The method, boiled down:
as §1

For assay [6], the system named is Amaranthus retroflexus (AMARE). Described as above. As to conditions: Amaranthus retroflexus, 312 h, read-out: Percentage damage caused to weed species, pre-emergence, AMARE; for pest or weed control at 1000 g/ha: rate 1,000 g/ha. The method, boiled down: as §1
Assay [7] has as its system Setaria faberi (SETFA). The assay can be described thus: Post-emergence biological efficacy, glasshouse, 500 or 1000 g/ha, evaluated after 13 days (100=total damage to plant; 0=no damage to plant). As to conditions: Setaria faberi, 312 h, read-out: Percentage damage caused to weed species, post-emergence, SETFA; for pest or weed control at 1000 g/ha: rate 1,000 g/ha. The method in brief: (§2)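 Sow seeds in standard potting soil. Treat after emergence. Keep treated plants in the glasshouse at 24° C. by day and 16° C. by night, with a 14-hour photoperiod, 65% humidity and two waterings daily.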

Assay [8] has as its system Ipomoea hederaceae (IPOHE). The description is as above. Conditions: Ipomoea, 312 h, read-out: Percentage damage caused to weed species, post-emergence, IPOHE; for pest or weed control at 1000 g/ha: rate 1,000 g/ha. The method, boiled down: as §2
For assay [9], the system named is Echinochloa crusgaffi (ECHCG). Described as above. As to conditions: Echinochloa, 312 h, read-out: Percentage damage caused to weed species, post-emergence, ECHCG; for pest or weed control at 1000 g/ha: rate 1,000 g/ha. The method in brief: as §2
Assay [10] relates to Solanum nigrum (SOLNI). Described as above. As to conditions: Solanum nigrum, 312 h, read-out: Percentage damage caused to weed species, post-emergence, SOLNI; for pest or weed control at 1000 g/ha: rate 1,000 g/ha. The method, boiled down: as §2
Assay [11] has as its system Alopecurus myosuroides (ALOMY). The description is as above. As to conditions: Alopecurus myosuroides, 312 h, read-out: Percentage damage caused to weed species, post-emergence, ALOMY; for pest or weed control at 1000 g/ha: rate 1,000 g/ha. The method, boiled down: as §2
Assay [12] concerns Amaranthus retroflexus (AMARE). The description is as above. As to conditions: Amaranthus retroflexus, 312 h, read-out: Percentage damage caused to weed species, post-emergence, AMARE; for pest or weed control at 1000 g/ha: rate 1,000 g/ha. The method in brief: as §2

On to `COC(=O)c1nc(-c2ccc(Cl)c(OC)c2F)nc2[nH]c(C)c(C)c12` [Compound 1-68, 2-(4-Chloro-2-fluoro-3-methoxyphenyl)-5,6-dimethyl-4-methoxycarbonyl-7H-pyrrolo[2,3-d]pyrimidine], for which the pest or weed control at 1000 g/ha in assay [1], in assay [2], in assay [3], in assay [4], in assay [5] and in assay [6] was 0% each time. Further, the pest or weed control at 1000 g/ha in assay [7] was 0%; in [8] it was 60%; in assay [9], 10%; in assay [10], 30%; in assay [11], 0%; in assay [12], 10%.
Turning to `C=C1c2c(nc(-c3ccc(Cl)c(OC)c3F)nc2C(=O)OC)NCC1(C)C` [Compound 71-180, 2-(4-Chloro-2-fluoro-3-methoxyphenyl)-6,6-dimethyl-4-methoxycarbonyl-5-methylene-5,6,7,8-tetrahydro-pyrido[2,3-d]pyrimidine], the pest or weed control at 500 g/ha in [1] (rate 500 g/ha), in assay [2] (rate 500 g/ha), in assay [3] (rate 500 g/ha), in assay [4] (rate 500 g/ha), in assay [5] (rate 500 g/ha) and in assay [6] (rate 500 g/ha) was 0% in each case. The pest or weed control at 500 g/ha was determined as 0% in assay [7] (rate 500 g/ha); 40% in assay [8] (rate 500 g/ha); 0% in assay [9] (rate 500 g/ha); 20% in [10] (rate 500 g/ha); 0% in assay [11] (rate 500 g/ha); 0% in [12] (rate 500 g/ha).
For the compound `COC(=O)c1nc(-c2ccc(Cl)c(OC)c2F)nc2scc(C)c12` [Compound 21-64, 2-(4-Chloro-2-fluoro-3-methoxyphenyl)-4-methoxycarbonyl-5-methyl-thieno[2,3-d]pyrimidine], the pest or weed control at 1000 g/ha in assay [1], in assay [2], in assay [3], in [4], in assay [5] and in [6] was 0% in each case. The pest or weed control at 1000 g/ha in assay [7] was 0%; in assay [8] it was 40%; in [9], 10%; in assay [10], 70%; in assay [11], 0%; in assay [12] it was 80%.
As for `COc1c(Cl)ccc(-c2nc3c(c(C(=O)O)n2)NC(c2ccccc2)C(c2ccccc2)N3)c1F` (stereo not drawn) [Compound 91-203, 4-Carboxy-2-(4-chloro-2-fluoro-3-methoxyphenyl)-6,7-diphenyl-5,6,7,8-tetrahydropteridine], the pest or weed control at 1000 g/ha in assay [1] came out at 0%; in assay [2], 10%; in assay [3], 0%; in assay [4] it was 20%; in [5], 0%; in assay [6], 0%. In addition, the pest or weed control at 1000 g/ha came to 10% in assay [7]; 10% in [8]; 0% in [9]; 40% in [10]; 0% in [11]; 10% in assay [12].
`COc1c(Cl)ccc(-c2nc(C(=O)OCC3CCCO3)c3c(C)c[nH]c3n2)c1F` (stereo not drawn) [Compound 1-88, 2-(4-Chloro-2-fluoro-3-methoxyphenyl)-5-methyl-4-(tetrahydrofuran-2-yl-methoxycarbonyl)-7H-pyrrolo[2,3-d]pyrimidine]: the pest or weed control at 1000 g/ha in assay [1] amounted to 0%; in [2], 10%; in assay [3] it was 10%; in assay [4] it was 20%; in assay [5], 0%; in [6] it was 10%. In addition, the pest or weed control at 1000 g/ha amounted to 40% in assay [7]; 50% in [8]; 10% in assay [9]; 70% in assay [10]; 10% in assay [11]; 50% in assay [12].
Take `COC(=O)c1nc(Cl)cc2[nH]cc(C)c12` [Compound 22-124, 6-chloro-4-methoxycarbonyl-3-methyl-1H-pyrrolo[3,2-c]pyridine]: the pest or weed control at 1000 g/ha in [1] is 30%; in assay [2] it was 100%; in [3], 20%; in assay [4], 100%; in assay [5], 70%; in [6], 100%. Further, the pest or weed control at 1000 g/ha in assay [7] was determined as 40%; in [8], 80%; in [9], 20%; in assay [10], 90%; in assay [11], 30%; in [12] it was 80%.
As to `O=C(O)c1nc(Cl)nc2[nH]ccc12` [Compound 1-121, 4-carboxy-2-chloro-7H-pyrrolo[2,3-d]pyrimidine], the pest or weed control at 1000 g/ha in assay [1], in assay [2], in [3], in [4], in assay [5] and in [6] was 0% throughout. The pest or weed control at 1000 g/ha in assay [7] was found to be 0%; in assay [8] it was 0%; in assay [9], 0%; in assay [10], 10%; in assay [11], 0%; in assay [12], 0%.
Take `COC(=O)c1nc(-c2ccc(Cl)c(OC)c2F)nc2c1c(C)cn2C(=O)OC` [Compound 17-64, 2-(4-Chloro-2-fluoro-3-methoxyphenyl)-4,7-di(methoxycarbonyl)-5-methyl-7H-pyrrolo[2,3-d]pyrimidine]: the pest or weed control at 1000 g/ha in assay [1], in assay [2], in [3], in assay [4], in assay [5] and in assay [6] was 0% throughout. In addition, the pest or weed control at 1000 g/ha amounted to 0% in assay [7]; 0% in assay [8]; 0% in [9]; 20% in assay [10]; 0% in assay [11]; 0% in assay [12].
